# Measured values as given in patent publication US11840686B2, “Modulation of prekallikrein (PKK) expression” (Ionis Pharmaceuticals, Inc., priority 2013, dated 2023).
# Strand notation (5' to 3'): a small letter for the sugar, then the base; units joined by * are phosphorothioate-linked, units joined directly phosphodiester-linked; [ ] holds rarer units or linkages, { } end groups; capitals alone tell only the bases. e = 2'-O-(2-methoxyethyl) (MOE); [5mC] = 5-methylcytosine; d = 2'-deoxy (DNA)
# Tested on: human PKK mRNA
# Experiment: Antisense inhibition of human PKK mRNA in HepaRG cells, 5,000 nM (Example 2)
# Assay type: cell-based
# Method in brief: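 HepaRG cells (20,000/well) electroporated with 5,000 nM MOE gapmer (phosphorothioate backbone, 5-methylcytosines) and harvested after ~24 h. PKK mRNA measured by qRT-PCR with primer probe set RTS3454, normalized to RIBOGREEN total RNA; percent inhibition versus untreated cells.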
# [1] = HepaRG cells, electroporation, 5,000 nM antisense oligonucleotide, approx. 24 hours, primer probe set RTS3454, relative to untreated control cells, Table 11
# [2] = HepaRG cells, electroporation with 5,000 nM antisense oligonucleotide, approximately 24 hours, PKK mRNA by RT-PCR (RTS3454), relative to untreated control cells, Table 6 experiment
# [3] = Table 9 experiment, HepaRG cells, 20,000 cells per well, electroporation with 5,000 nM antisense oligonucleotide, approx. 24 hours, PKK mRNA by RT-PCR (RTS3454), relative to untreated control cells
# [4] = Table 10 experiment, HepaRG cells, 20,000 cells per well, electroporation with 5,000 nM antisense oligonucleotide, approx. 24 hours, PKK mRNA by RT-PCR (RTS3454), relative to untreated control cells
# [5] = HepaRG cells, 5,000 nM antisense oligonucleotide, 5-10-5 gapmers, Table 16
# [6] = HepaRG cells, 5,000 nM antisense oligonucleotide, 5-10-5 gapmers, Table 17
# [7] = HepaRG cells, electroporation with 5,000 nM antisense oligonucleotide, approximately 24 hours, PKK mRNA by RT-PCR (RTS3454), relative to untreated control cells, Table 5 experiment
# [8] = Table 7, HepaRG cells, electroporation with 5,000 nM antisense oligonucleotide, approx. 24 hours, PKK mRNA by RT-PCR (RTS3454), relative to untreated control cells
# [9] = human PKK mRNA, HepaRG cells, 5-10-5 motif oligonucleotides targeting SEQ ID NO: 1 and 10
# [10] = HepaRG cells, electroporation, 5,000 nM antisense oligonucleotide, approx. 24 hours, primer probe set RTS3454, relative to untreated control cells, Table 12
# [11] = Table 8, HepaRG cells, electroporation with 5,000 nM antisense oligonucleotide, approx. 24 hours, PKK mRNA by RT-PCR (RTS3454), relative to untreated control cells
substance,measurement,setting,value
547521 (antisense e[5mC]*eT*eT*e[5mC]*eA*dG*d[5mC]*d[5mC]*dA*dG*dA*d[5mC]*dA*dT*dT*eG*eT*e[5mC]*e[5mC]*eT) [compound 547521],% inhibition,[1],58%
547359 (e[5mC]*eG*eG*eG*eA*d[5mC]*dT*dG*dT*dA*d[5mC]*dT*dT*dT*dA*eA*eT*eA*eG*eG; antisense) [compound 547359],% inhibition,[2],81%
547525 (antisense e[5mC]*e[5mC]*eT*e[5mC]*eG*d[5mC]*dA*dT*dT*dG*dT*d[5mC]*dA*dG*d[5mC]*e[5mC]*e[5mC]*e[5mC]*eT*eG) [compound 547525],% inhibition,[1],78%
547470 (antisense eT*e[5mC]*eG*eA*eG*dA*dA*dG*d[5mC]*d[5mC]*d[5mC]*d[5mC]*dA*dT*d[5mC]*e[5mC]*eG*eG*eT*eT) [compound 547470],% inhibition,[3],70%
same,% inhibition,[4],68%
546969 (eA*eT*e[5mC]*e[5mC]*eA*dA*d[5mC]*d[5mC]*dT*d[5mC]*dT*d[5mC]*dT*d[5mC]*d[5mC]*e[5mC]*eT*eA*eT*e[5mC]; antisense) [compound 546969],% inhibition,[5],53%
547752 (eG*eT*eG*eG*eT*dT*dG*dG*dT*dG*dG*d[5mC]*dG*dG*dG*eA*eT*e[5mC]*eG*eG; antisense) [compound 547752],% inhibition,[6],41%
546140 (eG*e[5mC]*eT*eT*eG*d[5mC]*dT*dT*dG*dA*dA*dT*dA*dA*dA*eA*eT*e[5mC]*eA*eT; antisense) [compound 546140],% inhibition,[7],60%
547590 (eA*eT*eA*eA*e[5mC]*dT*dA*dT*dA*dA*d[5mC]*dA*dG*dT*dA*eT*e[5mC]*eA*e[5mC]*eT; antisense) [compound 547590],% inhibition,"human PKK mRNA in HepaRG cells, 5-10-5 gapmers, Table 14",0%
547679 (antisense eT*eG*eT*eA*e[5mC]*d[5mC]*dT*dA*dT*dA*dT*d[5mC]*dA*d[5mC]*dT*eG*eT*eA*eA*e[5mC]) [compound 547679],% inhibition,[5],28%
547381 (eT*eG*eT*eG*eA*d[5mC]*dT*d[5mC]*dG*dA*dT*dT*dT*dT*d[5mC]*e[5mC]*eA*eT*eA*e[5mC]; antisense) [compound 547381],% inhibition,[8],49%
547018 (eG*eG*eT*eG*eG*d[5mC]*dG*dG*dG*dA*dT*dT*dG*dG*dT*eG*eG*eT*eG*eG; antisense) [compound 547018],% inhibition,[6],58%
547638 (eA*eT*eA*eA*e[5mC]*dA*dG*dT*dA*dT*d[5mC]*dA*d[5mC]*dT*dG*eT*eA*e[5mC]*eT*eA; antisense) [compound 547638],% inhibition,[9],87%
546684 (eT*eA*e[5mC]*eT*e[5mC]*dT*d[5mC]*dT*dA*d[5mC]*dA*dT*dA*d[5mC]*dT*e[5mC]*eA*eG*eG*eA; antisense) [compound 546684],% inhibition,[10],71%
546784 (eG*eG*e[5mC]*eA*eG*dG*dG*dA*dG*dG*dT*dG*dG*dA*dT*eT*eA*eT*eT*e[5mC]; antisense) [compound 546784],% inhibition,"Table 13, human PKK mRNA in HepaRG cells, 5-10-5 gapmers",58%
546277 (eT*eG*eT*eG*eT*d[5mC]*d[5mC]*d[5mC]*dA*dT*dA*d[5mC]*dG*d[5mC]*dA*eA*eT*e[5mC]*e[5mC]*eT; antisense) [compound 546277],% inhibition,[11],90%
546384 (antisense e[5mC]*eG*eT*e[5mC]*e[5mC]*dT*dT*dA*dG*dG*dA*dT*dG*d[5mC]*dA*eA*eA*eG*eA*eA) [compound 546384],% inhibition,[1],81%
546293 (antisense eG*e[5mC]*e[5mC]*eT*e[5mC]*dT*dG*dA*dG*d[5mC]*dT*dG*dT*d[5mC]*dA*eG*e[5mC]*eT*eT*e[5mC]) [compound 546293],% inhibition,[11],64%
546501 (eT*eT*eT*e[5mC]*e[5mC]*dA*dT*dG*d[5mC]*dA*dT*dA*d[5mC]*dT*d[5mC]*eG*e[5mC]*e[5mC]*eT*eT; antisense) [compound 546501],% inhibition,[10],53%
546885 (eT*eA*eT*eG*eT*d[5mC]*dA*d[5mC]*dT*dG*dT*dA*d[5mC]*d[5mC]*dT*eA*eT*eA*eA*e[5mC]; antisense) [compound 546885],% inhibition,[9],46%
546383 (antisense eG*eG*eA*eT*eG*d[5mC]*dA*dA*dA*dG*dA*dA*dG*dA*dT*eG*e[5mC]*e[5mC]*eA*e[5mC]) [compound 546383],% inhibition,[1],57%
546317 (antisense eA*eG*eG*eA*eG*d[5mC]*d[5mC]*dT*dG*dG*dA*dG*dT*dT*dT*eT*eA*eT*e[5mC]*eA) [compound 546317],% inhibition,[3],12%
same,% inhibition,[4],31%
547292 (antisense eT*eA*e[5mC]*eA*eT*dG*dG*dA*dA*dG*d[5mC]*dT*dA*d[5mC]*dA*eT*e[5mC]*e[5mC]*e[5mC]*e[5mC]) [compound 547292],% inhibition,[7],60%
547398 (e[5mC]*eA*eG*eG*eG*dT*dT*d[5mC]*dA*dG*dG*dT*dA*dA*dA*eG*eT*eT*e[5mC]*eT; antisense) [compound 547398],% inhibition,[8],16%
547640 (eT*eG*eT*e[5mC]*e[5mC]*dT*dA*dT*dA*dA*d[5mC]*dT*dA*dT*dA*eA*e[5mC]*eA*eG*eT; antisense) [compound 547640],% inhibition,[9],13%
547316 (antisense eG*eA*eA*eA*e[5mC]*dT*dG*d[5mC]*dA*d[5mC]*d[5mC]*dT*dG*dT*dT*e[5mC]*eG*eA*eT*eG) [compound 547316],% inhibition,[2],75%
547049 (e[5mC]*eA*e[5mC]*eT*eT*d[5mC]*d[5mC]*d[5mC]*dA*dG*d[5mC]*dA*dA*d[5mC]*d[5mC]*e[5mC]*eT*e[5mC]*eA*e[5mC]; antisense) [compound 547049],% inhibition,[6],20%
546196 (antisense e[5mC]*eA*e[5mC]*eT*eG*d[5mC]*dT*dA*dA*d[5mC]*d[5mC]*dT*dT*dA*dG*eA*e[5mC]*eA*e[5mC]*eA) [compound 546196],% inhibition,[2],83%
547642 (eT*e[5mC]*eA*e[5mC]*eT*dG*dT*d[5mC]*d[5mC]*dT*dA*dT*dA*dA*d[5mC]*eT*eA*eT*eA*eA; antisense) [compound 547642],% inhibition,[9],72%
547460 (antisense e[5mC]*eT*eG*eG*eA*dG*dT*dT*dT*dT*dA*dT*d[5mC]*dA*dA*eG*eG*e[5mC]*eG*eA) [compound 547460],% inhibition,[3],72%
same,% inhibition,[4],75%
546409 (eG*eG*eG*eT*eT*dT*d[5mC]*dT*dG*d[5mC]*d[5mC]*dA*dA*d[5mC]*dA*eG*eT*eT*eT*e[5mC]; antisense) [compound 546409],% inhibition,[10],77%
546891 (e[5mC]*eT*eG*eT*e[5mC]*d[5mC]*dT*dA*dT*dG*dT*d[5mC]*dA*d[5mC]*dT*eG*eT*eA*e[5mC]*e[5mC]; antisense) [compound 546891],% inhibition,[9],81%
547063 (e[5mC]*eG*eT*e[5mC]*eA*dT*dG*d[5mC]*dT*dT*dA*d[5mC]*d[5mC]*dT*dT*eT*e[5mC]*eT*e[5mC]*e[5mC]; antisense) [compound 547063],% inhibition,[6],23%
547363 (eG*eG*e[5mC]*eA*eA*d[5mC]*dA*dT*d[5mC]*d[5mC]*dA*d[5mC]*dA*dT*d[5mC]*eT*eG*eA*eG*eA; antisense) [compound 547363],% inhibition,[2],84%
546163 (eA*e[5mC]*eT*eT*eG*d[5mC]*dT*dG*dG*dA*dA*dG*dA*dA*dA*eA*e[5mC]*eT*eG*eA; antisense) [compound 546163],% inhibition,[7],42%
548748 (antisense eG*eT*eA*e[5mC]*dT*dA*dG*dT*dT*dT*d[5mC]*d[5mC]*dT*dA*eT*eA*eA*e[5mC]) [compound 548748],% inhibition,"human PKK mRNA, HepaRG cells, 5,000 nM antisense oligonucleotide, Table 18",0%
